# Results from patent publication US20090005745A1, “Transdermal drug delivery systems for delivering anti-inflammatory drugs” (priority 2007, published 2009).
# Assays:
# [1] = Ketoprofen plasma levels achieved by on-knee patch delivery (Example 7); format: in vivo, human; conditions: N = 22; for concentration at 2 h / concentration at 4 h / concentration at 6 h / concentration at 8 h / concentration at 10 h / concentration at 12 h / concentration at 14 h / concentration at 16 h / concentration at 18 h / concentration at 20 h / concentration at 24 h / concentration at 28 h / concentration at 32 h / concentration at 36 h / concentration at 42 h / concentration at 48 h: human, plasma, topical, Mean Ketoprofen Plasma Concentration; for concentration at 2 h: applied 12 h
# Procedure: In one study session, subjects received one patch above one knee and in the other study session subjects received two patches simultaneously, one above each knee. The patches were applied for 12 hours and venous blood samples were collected during both study session.
# [2] = Skin permeability using the Example 1 formulations (Example 6)
# Excerpt: Thus, adjustment of the drug concentration can be carried out in order to achieve a desired therapeutic effect.
compound,measurement,setting,value
CC(C(=O)O)c1cccc(C(=O)c2ccccc2)c1 (centres unmarked) [Ketoprofen],Mean Ketoprofen Plasma Concentration produced by unit skin-drug contact area,"[1]; Single Patch, time point 2 hrs",0.078 ng/ml/cm^2
same,Mean Ketoprofen Plasma Concentration produced by unit skin-drug contact area,"[1]; Single Patch, time point 4 hrs",0.366 ng/ml/cm^2
same,Mean Ketoprofen Plasma Concentration produced by unit skin-drug contact area,"[1]; Single Patch, time point 6 hrs",0.562 ng/ml/cm^2
same,Mean Ketoprofen Plasma Concentration produced by unit skin-drug contact area,"[1]; Single Patch, time point 8 hrs",0.675 ng/ml/cm^2
same,Mean Ketoprofen Plasma Concentration produced by unit skin-drug contact area,"[1]; Single Patch, time point 10 hrs",0.770 ng/ml/cm^2
same,Mean Ketoprofen Plasma Concentration produced by unit skin-drug contact area,"[1]; Single Patch, time point 12 hrs",0.703 ng/ml/cm^2
same,Mean Ketoprofen Plasma Concentration produced by unit skin-drug contact area,"[1]; Single Patch, time point 14 hrs",0.464 ng/ml/cm^2
same,Mean Ketoprofen Plasma Concentration produced by unit skin-drug contact area,"[1]; Single Patch, time point 16 hrs",0.282 ng/ml/cm^2
same,Mean Ketoprofen Plasma Concentration produced by unit skin-drug contact area,"[1]; Single Patch, time point 18 hrs",0.213 ng/ml/cm^2
same,Mean Ketoprofen Plasma Concentration produced by unit skin-drug contact area,"[1]; Single Patch, time point 20 hrs",0.160 ng/ml/cm^2
same,Mean Ketoprofen Plasma Concentration produced by unit skin-drug contact area,"[1]; Single Patch, time point 24 hrs",0.095 ng/ml/cm^2
same,Mean Ketoprofen Plasma Concentration produced by unit skin-drug contact area,"[1]; Single Patch, time point 28 hrs",0.058 ng/ml/cm^2
same,Mean Ketoprofen Plasma Concentration produced by unit skin-drug contact area,"[1]; Single Patch, time point 32 hrs",0.035 ng/ml/cm^2
same,Mean Ketoprofen Plasma Concentration produced by unit skin-drug contact area,"[1]; Single Patch, time point 36 hrs",0.028 ng/ml/cm^2
same,Mean Ketoprofen Plasma Concentration produced by unit skin-drug contact area,"[1]; Single Patch, time point 42 hrs",0.023 ng/ml/cm^2
same,Mean Ketoprofen Plasma Concentration produced by unit skin-drug contact area,"[1]; Single Patch, time point 48 hrs",0.019 ng/ml/cm^2
same,Mean Ketoprofen Plasma Concentration,"[1]; Two Patches Dose-Normalized to one patch, time point 2 hrs",3.9 ng/mL
same,Mean Ketoprofen Plasma Concentration,"[1]; Two Patches Dose-Normalized to one patch, time point 4 hrs",44.6 ng/mL
same,Mean Ketoprofen Plasma Concentration,"[1]; Two Patches Dose-Normalized to one patch, time point 48 hrs",3.1 ng/mL
same,Mean Ketoprofen Plasma Concentration produced by unit skin-drug contact area,"[1]; Two Patches, time point 2 hrs",0.023 ng/ml/cm^2
same,Mean Ketoprofen Plasma Concentration produced by unit skin-drug contact area,"[1]; Two Patches, time point 4 hrs",0.259 ng/ml/cm^2
same,Mean Ketoprofen Plasma Concentration produced by unit skin-drug contact area,"[1]; Two Patches, time point 6 hrs",0.512 ng/ml/cm^2
same,Mean Ketoprofen Plasma Concentration produced by unit skin-drug contact area,"[1]; Two Patches, time point 8 hrs",0.630 ng/ml/cm^2
same,Mean Ketoprofen Plasma Concentration produced by unit skin-drug contact area,"[1]; Two Patches, time point 10 hrs",0.714 ng/ml/cm^2
same,Mean Ketoprofen Plasma Concentration produced by unit skin-drug contact area,"[1]; Two Patches, time point 12 hrs",0.665 ng/ml/cm^2
same,Mean Ketoprofen Plasma Concentration produced by unit skin-drug contact area,"[1]; Two Patches, time point 14 hrs",0.454 ng/ml/cm^2
same,Mean Ketoprofen Plasma Concentration produced by unit skin-drug contact area,"[1]; Two Patches, time point 16 hrs",0.280 ng/ml/cm^2
same,Mean Ketoprofen Plasma Concentration produced by unit skin-drug contact area,"[1]; Two Patches, time point 18 hrs",0.199 ng/ml/cm^2
same,Mean Ketoprofen Plasma Concentration produced by unit skin-drug contact area,"[1]; Two Patches, time point 20 hrs",0.152 ng/ml/cm^2
same,Mean Ketoprofen Plasma Concentration produced by unit skin-drug contact area,"[1]; Two Patches, time point 24 hrs",0.090 ng/ml/cm^2
same,Mean Ketoprofen Plasma Concentration produced by unit skin-drug contact area,"[1]; Two Patches, time point 28 hrs",0.054 ng/ml/cm^2
same,Mean Ketoprofen Plasma Concentration produced by unit skin-drug contact area,"[1]; Two Patches, time point 32 hrs",0.036 ng/ml/cm^2
same,Mean Ketoprofen Plasma Concentration produced by unit skin-drug contact area,"[1]; Two Patches, time point 36 hrs",0.029 ng/ml/cm^2
same,Mean Ketoprofen Plasma Concentration produced by unit skin-drug contact area,"[1]; Two Patches, time point 42 hrs",0.021 ng/ml/cm^2
same,Mean Ketoprofen Plasma Concentration produced by unit skin-drug contact area,"[1]; Two Patches, time point 48 hrs",0.018 ng/ml/cm^2
same,concentration at 2 h,"[1]; 136 mg, Single Patch (136 mg, 172 cm^2, heated) above one knee, time point 2 hrs",13.5 ng/mL
same,concentration at 4 h,"[1]; 136 mg, Single Patch, time point 4 hrs",62.9 ng/mL
same,concentration at 6 h,"[1]; 136 mg, Single Patch, time point 6 hrs",96.7 ng/mL
same,concentration at 8 h,"[1]; 136 mg, Single Patch, time point 8 hrs",116 ng/mL
same,concentration at 10 h,"[1]; 136 mg, Single Patch, time point 10 hrs",132 ng/mL
same,concentration at 12 h,"[1]; 136 mg, Single Patch, time point 12 hrs",121 ng/mL
same,concentration at 14 h,"[1]; 136 mg, Single Patch, time point 14 hrs",79.8 ng/mL
same,concentration at 16 h,"[1]; 136 mg, Single Patch, time point 16 hrs",48.5 ng/mL
same,concentration at 18 h,"[1]; 136 mg, Single Patch, time point 18 hrs",36.3 ng/mL
same,concentration at 20 h,"[1]; 136 mg, Single Patch, time point 20 hrs",27.6 ng/mL
same,concentration at 24 h,"[1]; 136 mg, Single Patch, time point 24 hrs",16.4 ng/mL
same,concentration at 28 h,"[1]; 136 mg, Single Patch, time point 28 hrs",10 ng/mL
same,concentration at 32 h,"[1]; 136 mg, Single Patch, time point 32 hrs",6.1 ng/mL
same,concentration at 36 h,"[1]; 136 mg, Single Patch, time point 36 hrs",4.9 ng/mL
same,concentration at 42 h,"[1]; 136 mg, Single Patch, time point 42 hrs",3.9 ng/mL
same,concentration at 48 h,"[1]; 136 mg, Single Patch, time point 48 hrs",3.2 ng/mL
same,concentration at 6 h,"[1]; 272 mg, Two Patches Dose-Normalized to one patch, time point 6 hrs",88.1 ng/mL
same,concentration at 8 h,"[1]; 272 mg, Two Patches Dose-Normalized to one patch, time point 8 hrs",108 ng/mL
same,concentration at 10 h,"[1]; 272 mg, Two Patches Dose-Normalized to one patch, time point 10 hrs",123 ng/mL
same,concentration at 12 h,"[1]; 272 mg, Two Patches Dose-Normalized to one patch, time point 12 hrs",114 ng/mL
same,concentration at 14 h,"[1]; 272 mg, Two Patches Dose-Normalized to one patch, time point 14 hrs",78.1 ng/mL
same,concentration at 16 h,"[1]; 272 mg, Two Patches Dose-Normalized to one patch, time point 16 hrs",48.2 ng/mL
same,concentration at 18 h,"[1]; 272 mg, Two Patches Dose-Normalized to one patch, time point 18 hrs",34.2 ng/mL
same,concentration at 20 h,"[1]; 272 mg, Two Patches Dose-Normalized to one patch, time point 20 hrs",26.1 ng/mL
same,concentration at 24 h,"[1]; 272 mg, Two Patches Dose-Normalized to one patch, time point 24 hrs",15.5 ng/mL
same,concentration at 32 h,"[1]; 272 mg, Two Patches Dose-Normalized to one patch, time point 32 hrs",6.2 ng/mL
same,concentration at 36 h,"[1]; 272 mg, Two Patches Dose-Normalized to one patch, time point 36 hrs",5 ng/mL
same,concentration at 42 h,"[1]; 272 mg, Two Patches Dose-Normalized to one patch, time point 42 hrs",3.6 ng/mL
same,concentration at 2 h,"[1]; 272 mg, Two Patches simultaneously, one above each knee, time point 2 hrs",7.8 ng/mL
same,concentration at 4 h,"[1]; 272 mg, Two Patches, time point 4 hrs",89.2 ng/mL
same,concentration at 6 h,"[1]; 272 mg, Two Patches, time point 6 hrs",176 ng/mL
same,concentration at 8 h,"[1]; 272 mg, Two Patches, time point 8 hrs",217 ng/mL
same,concentration at 10 h,"[1]; 272 mg, Two Patches, time point 10 hrs",246 ng/mL
same,concentration at 12 h,"[1]; 272 mg, Two Patches, time point 12 hrs",229 ng/mL
same,concentration at 14 h,"[1]; 272 mg, Two Patches, time point 14 hrs",156 ng/mL
same,concentration at 16 h,"[1]; 272 mg, Two Patches, time point 16 hrs",96.3 ng/mL
same,concentration at 18 h,"[1]; 272 mg, Two Patches, time point 18 hrs",68.4 ng/mL
same,concentration at 20 h,"[1]; 272 mg, Two Patches, time point 20 hrs",52.2 ng/mL
same,concentration at 24 h,"[1]; 272 mg, Two Patches, time point 24 hrs",31 ng/mL
same,concentration at 28 h,"[1]; 272 mg, Two Patches, time point 28 hrs",18.6 ng/mL
same,concentration at 32 h,"[1]; 272 mg, Two Patches, time point 32 hrs",12.3 ng/mL
same,concentration at 36 h,"[1]; 272 mg, Two Patches, time point 36 hrs",9.9 ng/mL
same,concentration at 42 h,"[1]; 272 mg, Two Patches, time point 42 hrs",7.2 ng/mL
same,concentration at 48 h,"[1]; 272 mg, Two Patches, time point 48 hrs",6.2 ng/mL
O=C(O)Cc1ccccc1Nc1c(Cl)cccc1Cl [diclofenac],Skin permeability compared with ketoprofen,[2],less skin permeable
